# Results reported in US20080306162A1, “Treatment of Inflammatory Disorders and Pain” (priority 2005, published 2008).
# Experiments:
# IL-10 = assay: LPS mouse assay, serum IL-10 by ELISA; type: in vivo, Balb C ByJ mice; settings: i.p. or oral 30 minutes before 1 mg/kg LPS i.p., serum 2 hours after LPS
# Method: (§1) 7 week old Balb C ByJ mice (24-28 g) were administered, either by i.p. (5 ml/kg) or oral (10 ml/kg) administration, with vehicle or test article. 30 minutes later these animals were challenged with an intraperitoneal injection of 1 mg/kg LPS. 2 hours after LPS challenge blood samples were collected under light isoflurane anaesthesia into normal tubes by retro-orbital puncture. Samples were allowed to clot at room temperature and then spun at 6000 g for 3 min at 4° C. Serum was stored at −20° C. until use. Serum TNFα and IL-10 levels were analysed in duplicate by ELISA technique.
# TNFα = assay: LPS mouse assay, serum TNFα by ELISA; type: in vivo, Balb C ByJ mice; settings: i.p. or oral 30 minutes before 1 mg/kg LPS i.p., serum 2 hours after LPS
# Method: as §1
# male Wistar rats = assay: Carrageenan paw assay; type: in vivo; settings: rat
# Method: Fasted (18 hour) male Wistar rats (105-130 g) were weighed and a basal mercury plethysmometer reading was taken of the right hind paw by submerging the paw in the mercury up to the tibiotarsal joint. Subsequently, vehicles, reference items and test articles were administered by oral gavage (10 ml/kg). Half an hour after treatment, 0.1 ml of 2% carrageenan in 0.9% saline was injected into the subplanatar area of the right hind paw. The right paw was measured again with the plethysmometer at 1, 2, 3, 4 and 5 hours after carrageenan administration.
SMILES,IL-10 production potentiated (IL-10; 10 mg/kg) [%],IL-10 production potentiated (IL-10; 30 mg/kg) [%],inhibition of TNFα production (TNFα; 10 mg/kg) [%],inhibition of TNFα production (TNFα; 30 mg/kg) [%],further results
"CC(C)(CO)NCC(O)c1ccccc1 (stereo not shown) [Example 2, 2-(2-phenyl-2-hydroxyethylamino)-2-methyl-propan-1-ol]",345,366,47,58,–
"CC(C)(CO)NCC(O)c1cc(Cl)c(N)c(Cl)c1 (racemic) [Example 1, 2-[2-(4-amino-3,5-dichlorophenyl)-2-hydroxyethylamino]-2-methylpropan-1-ol]",417,392,60,61,–
"CC(C)(CO)NCC(O)c1cc(Cl)c(N)c(Cl)c1 (single isomer, unassigned) [2-[2-(4-amino-3,5-dichlorophenyl)-2-hydroxyethylamino]-2-methylpropan-1-ol]",–,–,–,–,inhibition in the carageenan paw assay (male Wistar rats; 0.3 mg/kg oral gavage): 18%; inhibition in the carageenan paw assay (male Wistar rats; 1 mg/kg oral gavage): 28%; inhibition in the carageenan paw assay (male Wistar rats; 3 mg/kg oral gavage): 26%; inhibition in the carageenan paw assay (male Wistar rats; 10 mg/kg oral gavage): 59%; inhibition in the carageenan paw assay (male Wistar rats; 30 mg/kg oral gavage): 71%; anti-inflammatory dose response in the carageenan paw assay (male Wistar rats; 0.3 to 30 mg/kg oral gavage): clear anti-inflammatory dose response curve
"CC(C)Cc1ccc(C(C)C(=O)O)cc1 (stereo not shown) [Ibuprofen, reference compound]",–,–,–,–,anti-inflammatory in the carageenan paw assay (male Wistar rats; 100 mg/kg oral gavage): 38%
"CC(C)(CO)NCC(O)c1ccc(F)cc1 (stereo not shown) [Example 3, 2-[2-(4-fluorophenyl)-2-hydroxyethylamino]-2-methylpropan-1-ol]",106,125,37,37,–
